Target: T1, human CB1 receptors (Homo sapiens, UniProt P21554)
T1 construct: expressed in transfected cells; host or cells: stably transfected cells (cell line for CB1 not explicitly stated)
Assay: Radioligand competition binding of [^3H]CP55940, human CB1
Conditions: competition with [^3H]CP55940; cells recombinantly expressing the receptor
Method: Stably transfected cells or spleen tissue were homogenized in 15 mmol L-1 Hepes, 0.3 mmol L-1 EDTA, 1 mmol L-1 EGTA, 2 mmol L-1 MgCl2, complete EDTA-free protease inhibitor (Roche Applied Science, Rotkreuz, Switzerland), pH 7.4 using a glass potter and centrifugation at 47,800 g at 4° C. for 30 min. The pellet was then rehomogenized twice in the same buffer and centrifuged (47,800 g, 4° C., 30 min). The final pellet was then resuspended in 75 mmol L-1 Tris, 0.3 mmol L-1 EDTA, 1 mmol L-1 EGTA, 12.5 mmol L-1 MgCl2, 250 mmol L-1 sucrose, pH 7.4 at a protein concentration of 1 to 3 mg mL-1, aliquoted, frozen on dry ice and stored at −80° C.
For competition binding, membrane preparations were incubated either with 0.3 nM of [^3H]-CP55940 in the presence or absence of increasing concentrations of unlabeled (R^1═R^2═CH2CH3, R^3═CH2CH2CH2F) compound of formula (I) or with 1.5 nM compound of formula (I) ((R^1═R^2═CHTCH2T, R^3═CH2CH2CH2F)) and increasing amounts of membranes (2.5-80 μg) in the presence or absence of CP55940 (10 μM) for 60 min at 30° C. in a final volume of 0.2 mL of 50 mmol L-1 Tris-HCl, 5 mmol L-1 MgCl2, 2.5 mmol L-1 EGTA, 0.1% fatty acid-free BSA and 1% DMSO, pH 7.4, buffer, gently shaking. […] IC50 values and Hill slopes were determined by a four parameter logistic model using ActivityBase

T1 sequence (P21554 whole entry): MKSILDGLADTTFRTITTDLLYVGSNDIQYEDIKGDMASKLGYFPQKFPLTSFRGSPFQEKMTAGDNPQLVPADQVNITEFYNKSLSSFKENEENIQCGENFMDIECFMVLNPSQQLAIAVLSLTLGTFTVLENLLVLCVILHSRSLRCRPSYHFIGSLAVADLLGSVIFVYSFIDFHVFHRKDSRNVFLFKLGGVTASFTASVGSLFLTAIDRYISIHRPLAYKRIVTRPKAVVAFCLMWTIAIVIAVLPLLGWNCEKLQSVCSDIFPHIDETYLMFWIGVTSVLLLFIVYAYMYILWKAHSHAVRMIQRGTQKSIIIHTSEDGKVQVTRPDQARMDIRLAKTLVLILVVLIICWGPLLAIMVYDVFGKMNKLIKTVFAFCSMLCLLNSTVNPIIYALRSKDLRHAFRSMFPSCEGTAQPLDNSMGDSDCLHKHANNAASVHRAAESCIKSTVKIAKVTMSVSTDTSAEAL

Ki: > 10 µM
SMILES: CCC(CC)(NC(=O)c1ccc(N2CC(OC)C2)c(OC[C@H]2C[C@@H]2CO)n1)C(=O)OCCCF [unlabeled compound of formula (I)]
